The values that follow come from US7101878B1 (Agouron Pharmaceuticals, Inc., priority 1998, dated 2006).

Structures are written as SMILES.

The term IC50 denotes the concentration that gives 50% inhibition.

Assay [1] addresses T1, human GnRH receptor (Homo sapiens, UniProt P30968).
T1 construct: expressed in transfected cells; host or cells: HEK 293 (hGnRH-R/293, from Dr. Stuart Sealfon)
T1 sequence (P30968 1-328): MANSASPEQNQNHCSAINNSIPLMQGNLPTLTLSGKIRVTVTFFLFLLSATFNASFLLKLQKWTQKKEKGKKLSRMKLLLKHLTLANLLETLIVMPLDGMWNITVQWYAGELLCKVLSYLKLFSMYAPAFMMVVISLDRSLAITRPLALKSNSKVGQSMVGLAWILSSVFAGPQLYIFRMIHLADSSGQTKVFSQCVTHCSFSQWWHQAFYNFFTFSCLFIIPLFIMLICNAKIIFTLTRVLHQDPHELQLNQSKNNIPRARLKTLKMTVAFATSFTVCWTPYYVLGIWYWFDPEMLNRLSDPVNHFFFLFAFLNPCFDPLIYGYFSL
Kind of assay: Radioligand binding, 125I-GnRH-A displacement, membranes of HEK 293 cells with human GnRH receptor. To be noted: read-out: hGnRH IC50. The procedure, abridged: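 Bound tracer was separated by filtration through polyethyleneimine-soaked GF/C filters and counted by liquid scintillation. IC50 from curve fitting; other species were tested under the same conditions.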

Assay [2] has as its target T2, mouse GnRH receptor (Mus musculus, UniProt Q01776).
T2 construct: expressed in transfected cells; host or cells: 293 cells
T2 sequence (Q01776 1-327): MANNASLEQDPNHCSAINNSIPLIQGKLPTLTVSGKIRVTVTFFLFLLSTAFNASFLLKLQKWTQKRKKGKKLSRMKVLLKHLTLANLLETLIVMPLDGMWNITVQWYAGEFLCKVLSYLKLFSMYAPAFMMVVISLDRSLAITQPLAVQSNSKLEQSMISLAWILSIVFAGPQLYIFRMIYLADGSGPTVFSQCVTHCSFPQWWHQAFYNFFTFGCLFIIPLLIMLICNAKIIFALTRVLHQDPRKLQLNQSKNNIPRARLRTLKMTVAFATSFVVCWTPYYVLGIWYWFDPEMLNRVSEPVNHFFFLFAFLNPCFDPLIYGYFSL
The assay can be described thus: Radioligand binding, 125I-GnRH-A, 293 cells expressing mouse GnRH receptors. To be noted: read-out: mGnRH IC50. The procedure, abridged: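 Bound label captured on 0.1% polyethyleneimine-treated GF/C filters, washed three times with PBS, counted. IC50 derived; identical set-up for every species.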

Assay [3] deals with T3, rat GnRH receptor (Rattus norvegicus, UniProt P30969).
T3 sequence (P30969 1-327): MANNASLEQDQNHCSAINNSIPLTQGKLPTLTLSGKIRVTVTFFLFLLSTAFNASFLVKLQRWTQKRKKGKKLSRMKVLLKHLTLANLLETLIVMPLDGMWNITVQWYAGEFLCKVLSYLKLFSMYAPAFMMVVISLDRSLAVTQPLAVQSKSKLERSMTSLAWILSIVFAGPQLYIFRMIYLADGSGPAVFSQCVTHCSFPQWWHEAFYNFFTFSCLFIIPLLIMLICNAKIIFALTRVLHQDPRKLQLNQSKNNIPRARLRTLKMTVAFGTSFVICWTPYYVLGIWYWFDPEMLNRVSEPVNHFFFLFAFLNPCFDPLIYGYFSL
Kind of assay: Radioligand binding, 125I-GnRH-A, rat pituitary membranes. Further details: membranes were prepared from rat pituitary; from tissue; host or cells: rat pituitary. To be noted: read-out: rGnRH IC50. The method, then:
All compounds were diluted in 1% DMSO (final assay concentration) in binding assay buffer. […] Reactions were terminated by rapid filtration onto 96-well Packard GF/C filters soaked in 0.1% polyethyleneimine. Filters were washed three times with PBS buffer, dried and counted on a Packard Topcount by liquid scintillation counting.
Assay conditions were identical for assessing compound activities at other species. […] IC50 values for control peptides and test compounds were calculated utilizing GraphPad Prism™ software.
The reaction mixture was vortexed and incubated for 1 min at room temperature. After one min, the mixture was vortexed and allowed to incubate for an additional minute. 2 ml of 0.5 M acetic acid/1% BSA was added to the reaction tube and the mixture was added to a C18 Sep-Pak cartridge. The cartridge was washed with subsequent washes of 5 ml H2O and 5 ml 0.5M acetic acid and then eluted with 5×1 ml of 60% CH3CN/40% 0.5M acetic acid. The eluate was diluted with 3× volume of HPLC buffer A (0.1% TFA in H2O) and loaded onto a C18 column. […] The radioactive fractions (750 ed/fraction) are collected into clean polypropylene tubes containing 100 μl of 10% BSA. Fractions were assessed for biological activity by radioligand binding.

For the compound `Cc1cc2c(cc1Cc1ccc(C(=O)NCC3CCC(CN)CC3)o1)C(C)(C)CCC2(C)C` (centres unmarked) [Compound 75], the results for the IC50 in assay [1], in assay [2] and in assay [3] were 0.115 µM, 0.71 µM and 0.74 µM, respectively.

Take `CCc1cccc(CC)c1NC(=O)c1ccc(Cc2cc3c(cc2C)C(C)(C)CCC3(C)C)o1` [Compound 86]: the IC50 in assay [1] came to 8 µM; in assay [3], 0.51 µM.

Regarding `Cc1cc2c(cc1Cc1ccc(C(=O)NCC3CCN(C(=O)OC(C)(C)C)CC3)o1)C(C)(C)CCC2(C)C` [Compound 87], the IC50 is 0.27 µM in assay [1] and 3.31 µM in assay [3].

For `Cc1cc2c(cc1Cc1ccc(C(=O)NCC3CCC(CNC(=O)C(F)(F)F)CC3)o1)C(C)(C)CCC2(C)C` (centres unmarked) [Compound 89], the IC50 in assay [1] came to 0.25 µM; in assay [3] it was 2.73 µM.

For the compound `Cc1cc2c(cc1Cc1ccc(C(=O)NCC3CCC(CNCc4c(C)noc4C)CC3)o1)C(C)(C)CCC2(C)C` (centres unmarked) [Compound 90], the half-inhibitory concentration (IC50) came out at 0.56 µM in assay [1] and 1.26 µM in assay [3].

In the case of `Cc1cc2c(cc1Cc1ccc(C(=O)NCC3CCC(CNCc4cc(=O)[nH]c(=O)[nH]4)CC3)o1)C(C)(C)CCC2(C)C` (centres unmarked) [Compound 91], the IC50 in assay [1] came to 0.12 µM; in assay [2], 0.79 µM; in assay [3] it was 0.95 µM.

Regarding `Cc1cc2c(cc1Cc1ccc(C(=O)NCC3CCC(CNc4nccc(Cl)n4)CC3)o1)C(C)(C)CCC2(C)C` (centres unmarked) [Compound 93], the IC50 was 8 µM in assay [1] and 5.47 µM in assay [3].

`Cc1cc2c(cc1Cc1ccc(C(=O)N3CCC(Nc4nccc(NCC5CCCO5)n4)CC3)o1)C(C)(C)CCC2(C)C` (centres unmarked) [Compound 94.2]: the IC50 worked out at 3 µM in assay [1] and 1.58 µM in assay [3].

Turning to `Cc1cc2c(cc1Cc1ccc(C(=O)NCC3CCC(CNc4ncc(C#N)c(N)n4)CC3)o1)C(C)(C)CCC2(C)C` (centres unmarked) [Compound 94], the IC50 in assay [1] is 0.315 µM; in assay [2], 1.3 µM; in assay [3], 1.49 µM.

Regarding `Cc1cc(C)nc(NS(=O)(=O)c2ccc(NC(=O)c3ccc(Cc4cc5c(cc4C)C(C)(C)CCC5(C)C)o3)cc2)n1` [Compound 97], the IC50 in assay [1] came to 1.7 µM; in assay [3] it was 1.69 µM.

Consider `COc1ccc(OC)c(NC(=O)c2ccc(Cc3cc4c(cc3C)C(C)(C)CCC4(C)C)o2)c1` [Compound 98], for which the values for the IC50 in assay [1], in assay [2] and in assay [3] were 0.08 µM, 0.084 µM and 0.22 µM, respectively.

As to `Cc1cc2c(cc1Cc1ccc(C(=O)NCC3CCCN(C(=O)OC(C)(C)C)C3)o1)C(C)(C)CCC2(C)C` (centres unmarked) [Compound 100], the values for the IC50 in assay [1] and in assay [3] were 0.585 µM and 6 µM, respectively.

For `Cc1cc2c(cc1Cc1ccc(C(=O)Nc3ccc(NC(=O)OC(C)(C)C)cc3)o1)C(C)(C)CCC2(C)C` [Compound 101], the IC50 in assay [1] and in assay [3] was over 10 µM throughout.

Take `Cc1cc2c(cc1Cc1ccc(C(=O)Nc3ccc(C(N)=O)cc3)o1)C(C)(C)CCC2(C)C` [Compound 102]: the half-inhibitory concentration (IC50) in assay [1] was 1.18 µM; in assay [3], 0.97 µM.

As for `Cc1cc2c(cc1Cc1ccc(C(=O)NCC3CCN(c4ccnc(Cl)n4)CC3)o1)C(C)(C)CCC2(C)C` [Compound 103], the half-inhibitory concentration (IC50) in assay [1] was found to be 0.36 µM; in assay [3] it was 3.46 µM.

Regarding `Cc1cc2c(cc1Cc1ccc(C(=O)NCC3CCCC(CNC(=O)C(F)(F)F)C3)o1)C(C)(C)CCC2(C)C` (centres unmarked) [Compound 105], the IC50 in assay [1] amounted to 0.022 µM; in assay [2] it was 0.2 µM; in assay [3], 0.25 µM.

Turning to `Cc1cc2c(cc1Cc1ccc(C(=O)NCc3cccc(CNc4ncccn4)c3)o1)C(C)(C)CCC2(C)C` [Compound 106], the IC50 in assay [1] was determined as 2 µM; in assay [3], 0.51 µM.

`Cc1cc2c(cc1Cc1ccc(C(=O)Nc3ccc(S(=O)(=O)Nc4ccc(Cl)nn4)cc3)o1)C(C)(C)CCC2(C)C` [Compound 107]: the IC50 in assay [1] and in assay [3] was over 10 µM throughout.

With `Cc1cc2c(cc1Cc1ccc(C(=O)NCC3CCC(CNc4ncccn4)CC3)o1)C(C)(C)CCC2(C)C` (centres unmarked) [Compound 111], the IC50 in assay [1] amounted to 0.63 µM; in assay [3] it was 1.74 µM.

Consider `Cc1cc2c(cc1Cc1ccc(C(=O)NCc3ccc(CN)cc3)o1)C(C)(C)CCC2(C)C` [Compound 113], for which the IC50 came to 0.34 µM in assay [1] and 0.3 µM in assay [3].

Take `Cc1cc2c(cc1Cc1ccc(C(=O)NCc3cccc(CNC(=O)C(F)(F)F)c3)o1)C(C)(C)CCC2(C)C` [Compound 116]: the IC50 in assay [1] worked out at 1.17 µM; in assay [3] it was 0.39 µM.

Take `Cc1cc2c(cc1Cc1ccc(C(=O)NC3CCN(c4nccc(NCC5CCCO5)n4)C3)o1)C(C)(C)CCC2(C)C` (centres unmarked) [Compound 117]: the IC50 was 1.81 µM in assay [1] and 3 µM in assay [3].

As to `COC(=O)c1cc(OC)c(OC)c(OC)c1NC(=O)c1ccc(Cc2cc3c(cc2C)C(C)(C)CCC3(C)C)o1` [Compound 118], the IC50 in assay [1] is 0.38 µM; in assay [3], 0.43 µM.

As to `Cc1cc2c(cc1Cc1ccc(C(=O)Nc3cncc(COC(=O)c4ccc(Cc5cc6c(cc5C)C(C)(C)CCC6(C)C)o4)c3)o1)C(C)(C)CCC2(C)C` [Compound 120], the IC50 in assay [1] and in assay [3] was over 10 µM in each case.

Turning to `COCCCNC(=O)c1ccc(Cc2cc3c(cc2C)C(C)(C)CCC3(C)C)o1` [Compound 122], the IC50 is 0.73 µM in assay [1] and 1.26 µM in assay [3].

In the case of `COC(CCCNC(=O)c1ccc(Cc2cc3c(cc2C)C(C)(C)CCC3(C)C)o1)OC` [Compound 125], the IC50 in assay [1] came to 0.135 µM; in assay [2], 1.05 µM; in assay [3] it was 0.56 µM.

Turning to `Cc1cc2c(cc1Cc1ccc(C(=O)NCC3CCCC(CN)C3)o1)C(C)(C)CCC2(C)C` (centres unmarked) [Compound 127], the IC50 came out at 0.51 µM in assay [1] and 0.91 µM in assay [3].

As to `Cc1cc2c(cc1Cc1ccc(C(=O)NCC3CCN(c4nccc(NCC5CCCO5)n4)CC3)o1)C(C)(C)CCC2(C)C` (centres unmarked) [Compound 128], the IC50 in assay [1] turned out to be 0.22 µM; in assay [2] it was 0.22 µM; in assay [3], 0.17 µM.

As for `Cc1cc2c(cc1Cc1ccc(C(=O)NCc3ccc(F)cc3)o1)C(C)(C)CCC2(C)C` [Compound 130], the IC50 in assay [1] worked out at 3 µM; in assay [3], 0.59 µM.

As to `Cc1cc2c(cc1Cc1ccc(C(=O)NCC3CCCC(CNc4ncccn4)C3)o1)C(C)(C)CCC2(C)C` (centres unmarked) [Compound 138], the IC50 is 0.2 µM in assay [1], 1.57 µM in assay [2] and 1.63 µM in assay [3].

Consider `Cc1cc2c(cc1Cc1ccc(C(=O)NCc3cccc(CN)c3)o1)C(C)(C)CCC2(C)C` [Compound 139], for which the IC50 in assay [1] stood at 0.11 µM; in assay [2], 0.15 µM; in assay [3], 0.113 µM.

Turning to `Cc1cc2c(cc1Cc1ccc(C(=O)NCc3ccc(CNc4nccc(NCC5CCCO5)n4)cc3)o1)C(C)(C)CCC2(C)C` (centres unmarked) [Compound 141], the IC50 in assay [1] worked out at 0.15 µM; in assay [2] it was 0.064 µM; in assay [3] it was 0.035 µM.

For `COCCCNc1ccnc(NCc2cccc(CNC(=O)c3ccc(Cc4cc5c(cc4C)C(C)(C)CCC5(C)C)o3)c2)n1` [Compound 153], the concentration for half-maximal inhibition (IC50) came out at 0.12 µM in assay [1], 0.021 µM in assay [2] and 0.011 µM in assay [3].

Consider `Cc1cc2c(cc1Cc1ccc(C(=O)NC[C@H]3CC[C@H](CNc4ccnc(NC[C@@H]5CCCO5)n4)CC3)o1)C(C)(C)CCC2(C)C` [Compound 174], for which the IC50 was 0.22 µM in assay [1], 0.57 µM in assay [2] and 0.385 µM in assay [3].
